Where two headings read alike, the source gives them in different places.
How the values were obtained:
hSERT = molecular target: T1, hSERT (Homo sapiens, UniProt P31645); assay: competition binding assay, recombinant human SERT in HEK-293 cell membranes
T1 construct: expressed in transfected cells; host or cells: HEK-293 (HEK-hSERT), membranes
Source text: (§1) These transporters control the amount of the three monoamines in the TMMS and therefore regulate fast excitatory and inhibitory neurotransmission in the CNS. Thus, the relative amounts of all three of these monoamines in the TMMS of brain controls mammalian neurobehaviors. To determine the Ki of the representative compounds; recombinant human monoamine transporters (DAT, SERT and NET) were expressed in HEK-293 cells as described in Eshleman et al. (1999). The HEK-hDAT, HEK-hSERT and HEK-hNET cells were incubated in modified Eagle's medium or Dulbecco's modified Eagle's medium exactly as described by Eshleman et al. Cells were grown until confluent on 150 mm diameter tissue culture dishes in a humidified 10% CO2 environment at 37° C. […] Paroxetine (SERT), [125sup I] RTI-55 binding (DAT) and (NET). The binding assays contained an aliquot of membranes prepared from the HEK cell lines expressing the recombinant human transporters (≈12-30 μg protein, depending on the cell line, adjusted to bind <10% of the total radioactivity added to the assay), [125supI] RTI-55 (0.2 nM final concentration) or [3supH] Paroxetine (0.4 nM final concentration) along with Krebs-HEPES assay buffer to yield a final volume of 250 μL. Specific binding was defined as the difference in binding observed in the presence and absence of 10 μM nomifensine (HEK-hDAT), 10 uM desipramine HEK-NET) or 10 μM imipramine (HEK-hSERT). The reaction was incubated for 90 min at room temperature in the dark and was terminated by vacuum filtration. Competition experiments were conducted with duplicate determinations.

hNET = molecular target: T2, hNET (Homo sapiens, UniProt P23975); assay: competition binding assay, recombinant human NET in HEK-293 cell membranes
T2 construct: expressed in transfected cells; host or cells: HEK-293 (HEK-hNET), membranes
T2 sequence (P23975 whole entry): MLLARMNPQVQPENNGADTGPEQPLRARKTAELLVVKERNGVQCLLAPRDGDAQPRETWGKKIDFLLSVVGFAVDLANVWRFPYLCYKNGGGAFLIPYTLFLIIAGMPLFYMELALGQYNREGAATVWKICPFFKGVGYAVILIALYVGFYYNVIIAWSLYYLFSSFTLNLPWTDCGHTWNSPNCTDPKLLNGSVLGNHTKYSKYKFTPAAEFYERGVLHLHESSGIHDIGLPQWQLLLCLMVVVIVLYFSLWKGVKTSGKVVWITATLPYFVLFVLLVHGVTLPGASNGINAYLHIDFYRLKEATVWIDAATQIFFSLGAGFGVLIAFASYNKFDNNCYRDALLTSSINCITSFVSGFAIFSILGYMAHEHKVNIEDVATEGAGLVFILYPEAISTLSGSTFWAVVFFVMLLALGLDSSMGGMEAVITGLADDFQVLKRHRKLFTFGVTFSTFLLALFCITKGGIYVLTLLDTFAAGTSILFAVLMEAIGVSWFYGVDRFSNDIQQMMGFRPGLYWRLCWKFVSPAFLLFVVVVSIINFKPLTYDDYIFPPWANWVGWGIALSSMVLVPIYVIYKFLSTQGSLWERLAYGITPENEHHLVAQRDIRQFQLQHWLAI
Source text: as §1

hDAT = molecular target: T3, hDAT (Homo sapiens, UniProt Q01959); assay: competition binding assay, recombinant human DAT in HEK-293 cell membranes; settings: [125I]RTI-55 0.2 nM, ± mean standard error, 3 trials, read-out: Inhibition of binding at human monoamine transporters (Ki) hDAT
T3 construct: expressed in transfected cells; host or cells: HEK-293 (HEK-hDAT), membranes
T3 sequence (Q01959 whole entry): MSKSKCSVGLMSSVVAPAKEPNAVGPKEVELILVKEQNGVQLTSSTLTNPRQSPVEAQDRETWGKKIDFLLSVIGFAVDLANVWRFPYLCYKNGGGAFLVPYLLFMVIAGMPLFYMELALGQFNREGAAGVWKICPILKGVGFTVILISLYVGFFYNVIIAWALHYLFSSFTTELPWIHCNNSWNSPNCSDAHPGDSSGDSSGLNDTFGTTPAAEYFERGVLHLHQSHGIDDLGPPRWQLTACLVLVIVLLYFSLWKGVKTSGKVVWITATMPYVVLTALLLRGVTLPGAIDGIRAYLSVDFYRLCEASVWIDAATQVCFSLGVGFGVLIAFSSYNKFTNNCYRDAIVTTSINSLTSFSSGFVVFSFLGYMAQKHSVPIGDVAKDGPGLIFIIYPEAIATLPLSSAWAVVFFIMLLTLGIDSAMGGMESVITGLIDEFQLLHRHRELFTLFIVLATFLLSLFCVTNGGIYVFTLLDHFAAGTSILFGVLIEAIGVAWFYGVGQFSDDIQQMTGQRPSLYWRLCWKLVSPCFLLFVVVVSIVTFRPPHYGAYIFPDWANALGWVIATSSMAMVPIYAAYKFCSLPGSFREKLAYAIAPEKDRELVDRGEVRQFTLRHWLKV
Source text: as §1

chronic fatigue syndrome = assay: clinical case study, chronic fatigue syndrome (Example 5); assay type: in vivo, human; settings: person, Mazindol 5.0 mg per day, after 10 days of therapy
Source text: P. C. a person had suffered from chronic fatigue syndrome, “chemical sensitivity and for one year with marked fatigue each day beginning in the early or mid afternoon. There has been some accompanying muscle aching, but no symptoms of central neurosystem involvement. Their functioning at work and at home had been seriously impaired. EBV titers were positive.

[1] = test system: reward deficiency disorder; assay: clinical case study, reward deficiency disorder (Example 6); assay type: in vivo, human; settings: person, Mazindol 2 mg BID, over several weeks
Source text: W. K. a person had suffered from alcohol abuse, sexual addiction and pathologic gambling for 10 years. They had been in counseling, Alcoholic Anonymous, Gamblers Anonymous on and off over the past 10 years with minimal effects. They had lost their marriage and several jobs as result of their behavioral problems. They had been treated with antidepressants, but they had been of little help. […] In addition, they reported that the thrill they have always gotten from gambling was no long present and they no longer felt compulsion to gamble.

[2] = test system: obsessive compulsive behavior; assay: clinical case study, obsessive compulsive behavior (Example 8); assay type: in vivo, human; settings: person, Mazindol 5 mg per day
Source text: patient five is a person who developed compulsive behaviors after the birth of their first child. […] They washed all food even if it had been pre-packaged and placed in specific foods in specific locations in their pantry and refrigerator which they were sure were the “safest: They wore gloves when they left the house and made […] children do so as well. They sprayed disinfectant on everything […] or […] children came in contact with and refused in eat in restaurants. Prior to their pregnancy they had been diagnosed with polycystic ovary disease and need treatment in order to conceive. They were told that they were also “borderline diabetic”. […] Shortly, after beginning their therapy they reported that “mood was better” and they didn't “feel anxious” about bacteria anymore. After three weeks of therapy with Mazindol they stopped wearing gloves (and forcing […] children to do so) and using disinfectant. Their spouse reported that they were a “new […]” and they were no allowed to put the groceries away without having to place it in particular places.

symptoms of ADHD = assay: clinical case study, ADHD (Example 3); assay type: in vivo, human
Source text: patient two is a person. […], they were also being treated with risperidone which continued for 2 years. […] Subsequently, the risperidone was then completely discontinued without any recurrence of symptoms of ADHD (i.e. poor attention span, hyperactivity, or inappropriate behavior).

dementia = assay: clinical case study, dementia with motor impairment (Example 7); assay type: in vivo, human; settings: person, Mazindol 8 mg per day, after 2 weeks of treatment
Source text: R 0 is a person had suffered from motor impairment and cognitive decline. They developed frank dementia and required institutionalization and nursing care. […] Based on reports by their care givers their became more aware of surrounding and was able to recognize family member for the first time in one year and was not “hearing and seeing things that were not there”.

Tourette syndrome = assay: clinical case study, Tourette syndrome with ADHD (Example 4); assay type: in vivo, human; settings: patient, Mazindol 7.5 mg per day started
Method: patient one is a person. They began to have constant vocal tics. Motor tics started […], consisting of licking their lips, rolling their eyes, hand and foot tics. They were diagnosed as having Tourette syndrome. […], the major problems were with their tics, outbursts and lack of control. Despite treatment with methylphenidate 20 mg twice a day (bid), haloperidol 0.5 mg and paroxetine 10 mg, they were in special school and was suffering from uncountable motor and vocal tics everyday during waking hours and with outbursts of shouting, coprolalia and episodes of self-mutilation. coprolabia, lying, hitting things and people, and extremely oppositional.

[3] = [3H]Paroxetine 0.4 nM, HEK-hSERT membranes, ± mean standard error, 3 trials, read-out: Inhibition of binding at human monoamine transporters (Ki) hSERT
[4] = [125I]RTI-55 0.2 nM, HEK-hNET membranes, ± mean standard error, 3 trials, read-out: Inhibition of binding at human monoamine transporters (Ki) hNET

T1 sequence (P31645 whole entry): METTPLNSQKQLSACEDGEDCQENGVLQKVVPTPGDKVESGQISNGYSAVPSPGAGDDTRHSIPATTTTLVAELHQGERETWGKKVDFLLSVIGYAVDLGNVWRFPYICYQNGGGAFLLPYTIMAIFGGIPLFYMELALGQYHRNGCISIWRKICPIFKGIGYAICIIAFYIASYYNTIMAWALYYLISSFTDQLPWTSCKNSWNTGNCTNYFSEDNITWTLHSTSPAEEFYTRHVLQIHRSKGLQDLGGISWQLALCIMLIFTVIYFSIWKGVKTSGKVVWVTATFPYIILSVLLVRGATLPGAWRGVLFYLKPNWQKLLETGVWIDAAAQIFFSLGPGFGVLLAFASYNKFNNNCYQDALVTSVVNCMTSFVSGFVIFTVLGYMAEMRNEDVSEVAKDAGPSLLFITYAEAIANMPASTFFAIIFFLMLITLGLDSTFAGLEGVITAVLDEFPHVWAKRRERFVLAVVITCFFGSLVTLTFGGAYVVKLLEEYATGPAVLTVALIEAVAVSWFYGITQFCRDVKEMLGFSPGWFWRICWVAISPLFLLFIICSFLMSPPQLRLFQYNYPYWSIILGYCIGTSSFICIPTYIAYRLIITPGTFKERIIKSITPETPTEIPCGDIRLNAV

SMILES: Clc1ccc(C2c3ccccc3C3=NCCN32)cc1 (stereo not drawn) [Cpd 2, 5-(4-Chlorophenyl)-2,5-dihydro-5H-imidazo(2,1-a)is oindole]
- Ki (hSERT; [3]): 0.014 ± 0.005 µM
- Ki (hNET; [4]): 0.056 ± 0.019 µM
- Ki (hDAT): 0.045 ± 0.011 µM

SMILES: Clc1ccc(C2c3ccccc3C3=NCCN32)cc1 (stereo not drawn) [Cpd 3, 5-(4-Chlorophenyl)-2,3-dihydro-5H-imidazo (2,1-a)is oindole]
- Ki (hSERT; [3]): 0.312 ± 0.045 µM
- Ki (hNET; [4]): 0.089 ± 0.018 µM
- Ki (hDAT): 0.111 ± 0.0073 µM

SMILES: OC1(c2ccc(Cl)c(Cl)c2)c2ccccc2C2=NCCN21 (stereo not drawn) [Cpd 1, 5-(3,4-dichlorophenyl)-2,5-dihydro-5H-imidazo(2,1-a)isoindol-5-ol]
- Ki (hSERT; [3]): 0.101 ± 0.0079 µM
- Ki (hNET; [4]): 0.363 ± 0.041 µM
- Ki (hDAT): 0.025 ± 0.0048 µM

SMILES: OC1(c2ccc(Cl)cc2)c2ccccc2C2=NCCN21 (stereo not drawn) [mazindol, 5-(4-Chlorophenyl)-2,5-dihydro-5H-imidazo(2,1-a)is oindol-5-ol]
- Ki (hSERT): 0.056 ± 0.009 µM
- clinical response of fatigue and muscle ache (chronic fatigue syndrome): complete relief of their fatigue and muscle ache symptoms
- clinical response of drinking and gambling behavior [1]: able to completely stop drinking after 5 weeks
- clinical response of obsessive compulsive behavior [2]: relief of their obsessive compulsive behavior
- Ki (hNET): 0.024 ± 0.002 µM
- recurrence of ADHD symptoms on maintenance (symptoms of ADHD; Mazindol 2.5 mg/day as sole agent, over the next 3 years): without the return of any symptoms of ADHD
- clinical response of ADHD symptoms (symptoms of ADHD; patient, Mazindol 2.5 mg BID started, within 2 months): improved attention span, loss of hyperactivity
- clinical response of motor function and dementia (dementia): improvement of their motor function, and their dementia
- clinical response of tics, outbursts and related symptoms (Tourette syndrome): significant improvement in these symptoms

— patent publication US20180098970A1, “USE OF […] THE TREATMENT OF NEURO[…]” (Afecta Pharmaceuticals, Inc., priority 2008, published 2018)
